# Counter-ions that a name gives are not always drawn. Like-named read-outs stand apart in the source and are kept apart here.
# How the values were obtained:
# [1] = Traction reflex test (myorelaxant action) in mice, therapeutic index versus MES; assay type: in vivo; conditions: ED50 for traction reflex impairment divided by ED50 for MES; for TI Tract: 30 min; for selectivity ratio at 0.5 h: mouse, in vivo, ip, read-out: TI Tract
# Procedure: NMR female mice (18-28 g) housed 5 per cage were used for the maximal electroshock (MES) and motor impairment tests. […] All compounds were dissolved in 0.9% saline.
# The MES test was performed together with tests for myorelaxant action (traction reflex) and motor coordination (rotarod). For the traction reflex test mice were placed with their forepaws on a horizontal rod and were required to place all 4 paws on the wire within 10 seconds. To test ataxia (motor coordination) mice were placed on rotarod (5 rpm) and were required to remain on the rod for 1 minute. […] These tests were followed by MES (100 Hz, 0.5 second shock duration, 50 mA shock intensity, 0.9 ms impulse duration, Ugo Basile) applied through corneal electrodes. The presence of tonic convulsions was scored (tonic extension of hind paws with minimum angle to the body of 90°). The aim was to obtain ED50 s for all parameters scored (anticonvulsive activity and motor side effects) with use of the Litchfield Wilcoxon test for quantal dose responses. Division of the ED50 for side effects (ataxia or myorelaxation) by the ED50 for antagonism of electroshock convulsions was used as a therapeutic index (TI). […]
# NMDA receptor = test: Patch clamp: NMDA-induced inward currents in cultured hippocampal neurones; assay type: cell-based, rat
# Procedure: Hippocampi were obtained from rat embryos (E20 to E21) and were then transferred to calcium and magnesium free Hank's buffered salt solution (Gibco) on ice. Cells were mechanically dissociated in 0.05% DNAase/0.3% ovomucoid (Sigma) following an 8 minute pre-incubation with 0.66% trypsin/0.1% DNAase (Sigma). The dissociated cells were then centrifuged at 18 ×g for 10 minutes, re-suspended in minimum essential medium (Gibco) and plated at a density of 150,000 cells cm^-2 onto poly-L-lysine (Sigma)-precoated plastic petri dishes (Falcon). The cells were nourished with NaHCO3 /HEPES-buffered minimum essential medium supplemented with 5% fetal calf serum and 5% horse serum (Gibco) and incubated at 37° C. with 5% CO2 at 95% humidity. […] Thereafter the medium was exchanged partially twice weekly.
# Patch clamp recordings were made from these neurones with polished glass electrodes (4-6 m.OMEGA.) in the whole cell mode at room temperature (20-22° C.) with the aid of an EPC-7 amplifier (List). Test substances were applied by switching channels of a custom-made fast superfusion system with a common outflow (10-20 ms exchange times). The contents of the intracellular solution were as follows (mM): CsCl (120), TEACl (20), EGTA (10), MgCl2 (1), CaCl2 -(0.2), glucose (10), ATP(2), cAMP (0.25); pH was adjusted to 7.3 with CsOH or HC1. The extracellular solutions had the following basic composition (mM): NaCl (140), KCl (3), CaCl2 (0.2), glucose (10), HEPES (10), sucrose (4.5), tetrodotoxin (TTX 3*10^-4). Glycine (1 μM) was present in all solutions: a concentration sufficient to cause around 80-85% activation of glycineB receptors. Only results from stable cells were accepted for inclusion in the final analysis, i.e., following recovery of responses to NMDA by at least 75% of their depression by the antagonists tested.
# (§1) IC50 s in patch clamp, excitotoxicity, and binding studies were calculated according to the four parameter logistic equation using the Grafit computer program (Erithacus Software, England). Ki value for binding studies were then determined according to Cheng and Prusoff. Binding values presented are means±SEM of 3-5 determinations (each performed in duplicate). […] Pearson product moment correlation analysis (Sigma Stat, Jandel Scientific) was used to compare in vitro potencies and in vivo anticonvulsant activity.
# cortical neurones = test: Excitotoxicity: glutamate toxicity in cultured cortical neurones (MTT); assay type: cell-based, rat; conditions: Rattus norvegicus, Cortical neurone
# Procedure: Cortical neurones were obtained from cerebral cortices of 17/18 day old fetal rats (Wistar), in general following the dissociation procedure described by. After short trypsinization and gentle trituration with fire-polished Pasteur pipettes, the cell suspension was washed by centrifugation. Cells were suspended in serum-free Neurobasal medium with B27 supplement (GIBCO) before plating onto poly-L-lysine (Sigma; 0.2 mg/ml, 20 h, 4° C.) and laminin (Sigma; 2 μg/ml, 1 h, 37° C.)-coated 96-well plates (Falcon, Primaria) at a density of 5×10^4 cells/well. Cortical neurones were maintained at 37° C. in humidified 10% CO2 /90% air. […] The medium was changed first after 4 days in vitro and then every 4 days by replacing 2/3 of the medium with astrocyte-conditioned medium. Cortical neurones between day 12 and 14 in culture were used for the experiments.
# New-born rat astrocytes were isolated non-enzymatically according to the method of [24]. Briefly, both hemispheres were dissected from 2-day-old rats, passed through an 80 μm gauze, and triturated with Pasteur pipettes. Cell suspension was made in Dulbecco's modified essential medium (DMEM, Gibco) supplemented with 10% fetal calf serum (FCS, Hyclone), 2 mM glutamine (Gibco) and 50 μg/ml gentamycin and transferred into untreated, plastic culture flasks (Corning; […]). Two days after plating the flasks were shaken for 10 minutes on a rotary platform (150 U/min) to remove microglial cells. The cultures were grown to confluency within 14 days, and the culture medium was changed twice weekly. Thereafter, the glial monolayers were extensively washed with serum-free Neurobasal medium (Gibco) to remove the serum. Flasks were then shaken several times to remove oligodendrocytes and neurones. To obtain conditioned medium from primary astrocytes, the cultures were incubated with fresh Neurobasal medium supplemented with B27 andglutamine. Every 2-3 days the conditioned medium was collected and replaced by fresh medium up to 4 times.
# Exposure to EAA was performed in serum-free Neurobasal medium containing 100 μM glutamate and the drug to be tested. After 20 h of incubation, the cytotoxic effect was morphologically examined under a phase contrast microscope and biochemically quantified by measuring cell viability with the MTT test (Promega). This calorimetric assay measures the reduction of a tetrazolium component (MTT) into an insoluble formazan product by the mitochondria of living cells. After incubation of the cortical neurones with the dye solution for approximately 1-4 hours, a solubilization solution was added to lyse the cells and solubilize the colored product (incubation overnight at 37° C., 10% CO2, 90% RH). These samples were then read using an Elisa plate reader (Thermomax, MWG Biotech) at a wavelength of 570 nm. The amount of color produced was directly proportional to the number of viable cells.
# as §1
# [2] = Table 7; NMDA 200 μM with glycine 1 μM at -70 mV; read-out: Patch Clamp IC50
# [3] = Table 9; NMDA-induced currents; read-out: Patch Clamp IC50
# [4] = Table 7, 100 μM glutamate, 20 h, read-out: Glut. Tox. IC50
# [5] = Table 9, 100 μM glutamate, read-out: Glut Tox IC50
# [6] = read-out: Patch Clamp IC50; Table 7; NMDA 200 μM with glycine 1 μM at -70 mV
# [7] = read-out: Patch Clamp IC50; Table 9; NMDA-induced currents
# [8] = 20 h, read-out: Glut. Tox. IC50
SMILES,TI Tract [1],IC50 (NMDA receptor; [2]) [µM],IC50 (NMDA receptor; [3]) [µM],IC50 (cortical neurones; [4]) [µM],IC50 (cortical neurones; [5]) [µM],selectivity ratio at 0.5 h [1],IC50 (NMDA receptor; [6]) [µM],IC50 (NMDA receptor; [7]) [µM],IC50 (cortical neurones; [8]) [µM],IC50 (cortical neurones; read-out: Glut Tox IC50) [µM]
"CNC1(C)CC(C)(C)CC(C)(C)C1.Cl [Mrz 2/640, N,1,3,3,5,5-hexamethylcyclohexanamine hydrochloride]",2.3,14.6,14.6,8.3,8.35,–,–,–,–,–
CC[C@]1(C)C[C@@H](C)C[C@@](C)(N)C1 (relative stereo) [Mrz 2/624],0.9,31,31,2.7,2.7,–,–,–,–,–
C[C@H]1CC(C)(C)C[C@@](C)(N)C1 (relative stereo) [Mrz 2/643],–,13.5,13.5,12,12,1.3,–,–,–,–
CN(C)C1(C)CC(C)(C)CC(C)(C)C1 [Mrz 2/642],4.1,–,–,–,–,–,42.5,42.5,29.3,29.3
CCC[C@H]1CCC[C@@](C)(N)C1 (relative stereo) [Mrz 2/628],0.8,126,126,27.3,27.3,–,–,–,–,–
"CC[C@H]1CC(C)(C)C[C@](C)(N)C1 [MRZ 2/682, (1R, 5S) trans-3-Ethyl-1,5,5-trimethylcyclohexylamine hydrochloride]",–,–,3.9,–,3.11,2.7,–,–,–,–
CC[C@@H]1CCC[C@@](C)(N)C1 (relative stereo) [Mrz 2/629],0.9,219,219,> 300,> 300,–,–,–,–,–
"CCC1(N)CC(C)(C)CC(C)(C)C1 [Mrz 2/600, 1-amino-1-ethyl-3,3,5,5-tetramethylcyclohexane]",0.6,3.7,3.49,2.1,2.1,–,–,–,–,–
C[C@@H]1CCC[C@@](C)(N)C1 (relative stereo) [Mrz 2/625],0.5,245,245,39.4,39.4,–,–,–,–,–
CC1(C)CC(N)CC(C)(C)C1 [Mrz 2/557],1.0,18.5,18.5,6.7,6.7,–,–,–,–,–
CC1(C)CC(CCN)CC(C)(C)C1 [Mrz 2/644],0.5,4.1,4.1,4.3,4.3,–,–,–,–,–
CCC[C@@H]1CC(C)(C)C[C@@](C)(N)C1 (relative stereo) [Mrz 2/635],1.3,21,21,8.2,8.18,–,–,–,–,–
CCC[C@@H]1CCC[C@@](C)(N)C1 (relative stereo) [Mrz 2/627],0.8,210,150,26.6,26.6,–,–,–,–,–
CC1(C)CCCC(C)(N)C1 (stereo not shown) [Mrz 2/621],–,–,–,–,–,1.8,92.4,92.4,> 100,> 100
"CCC1(CC)CC(C)(C)CC(C)(N)C1 (stereo not shown) [Mrz 2/623, 1-amino-1,5,5-trimethyl-3,3-diethylcyclohexane]",1.4,3.7,3.7,4.5,4.5,–,–,–,–,–

# Reference: patent publication US6034134A, “1-Amino-alkylcyclohexane NMDA receptor antagonists” (Merz + Co. GmbH & Co., priority 1998, dated 2000)
